From patent US8008258B2, “Cop 1 for treatment of inflammatory bowel diseases” (Yeda Research and Development Co. Ltd., priority 2003, dated 2011)
Marks after values point to notes of the source that are not given here.

Test system: TNBS-induced colitis
Assay: TNBS-induced colitis in (SJL/JxBALB/c)F1 mice, various GA treatment modes
Format: in vivo
Conditions: for Decrease in the total macroscopic score versus untreated mice: 5 days after disease induction; for Decrease in the total macroscopic damage versus untreated mice: fed with GA
Method: Induction of cholitis in mice. TNBS-colitis was induced by rectal instillation of 2,4,6-trinitrobenzene sulfonic acid 5% (w/v), mixed with an equal volume of ethanol, into anesthetized mice (100 μl/mouse). Each treatment group included 6-12 mice. Mice that died before day 4 were considered as treatment casualties and were not taken into consideration.
Assessment of colitis. Weight changes and survival were monitored daily. […]
Macroscopic colonic scoring. Gross colonic damage was graded according to Reuter et al. (1996), using the combined values of the four standard macroscopic parameters: degree of colonic ulcerations (scale from 0—completely normal, to 10—most severe); intestinal and peritoneal adhesions (0 to 2); diarrhea (0 to 1); and thickness (0 to 1). The total score is the arithmetic sum of the four scores. The evaluation was performed in a blind procedure.
Microscopic scoring. Proximal, medial, and distal portions of colon were fixed in 10% phosphate-buffered formalin. Paraffin-embedded sections were stained with hematoxylin and eosin. The degree of histological damage and inflammation was graded according to Elson et al. (1996) using the combined values of the four microscopic parameters: extent (scale from 0—completely normal, to 2—involving more than one segment); inflammation (0—none to 3—severe); damage (0 to 3—severe transmural); and regeneration (0—complete re-eptihelization to 3—none). The total score is the arithmetic sum of the four scores. The evaluation was performed in a blind procedure.
Oral treatment—250 μg/day in PBS, fed by gastric intubation with an 18-gauge stainless steel feeding needle. Unless otherwise stated, feedings were performed on days-7, -5, -3, -1, 0, 2, 4 and 6, relative to the day of TNBS instillation. […]
To explore whether the beneficial effect of GA on TNBS-induced colitis is restricted to oral administration in the BALB/c strain or represents a more general effect, we studied the ability of GA administered by different routes and dosages to inhibit TNBS-induced colitis in two additional strains of mice.

[1] = scoring 5 days after disease induction, GA injected daily (from day −7), 2.5 mg/mouse SC
[2] = scoring 5 days after disease induction, GA injected daily (from day −14), 2.5 mg/mouse SC
[3] = scoring 5 days after disease induction, GA injected once day −14, 5 mg/mouse SC in ICFA
[4] = scoring 5 days after disease induction, GA oral every other day (from day −7), 0.25 mg, 8 feedings
[5] = scoring 11 days after disease induction, GA injected daily (from day −7), 2.5 mg/mouse SC
[6] = scoring 11 days after disease induction, GA injected daily (from day −14), 2.5 mg/mouse SC
[7] = scoring 11 days after disease induction, GA injected once day −14, 5 mg/mouse SC in ICFA
[8] = scoring 11 days after disease induction, GA oral every other day (from day −7), 0.25 mg, 8 feedings

Substance: glatiramer acetate [GA]
- Decrease in the total macroscopic score versus untreated mice (GA daily injections from day −7): 3.5 fold
- Decrease in the total macroscopic score versus untreated mice (GA daily injections from day −14): 4.6 fold
- Complete weight restoration (GA injected daily (from day −7)): ≤ 6 days
- Weight loss (of original weight) (GA injected daily (from day −7), 1 day after induction): 4%
- Mortality (daily injection of GA (starting both 7 and 14 days before disease induction)): completely prevented mortality
- Reduction in the histological score (daily injections (starting either 7 or 14 days before disease induction)): 6.6 fold
- Inhibition of weight loss caused by TNBS colitis (daily-injected mice): major significant inhibition of weight loss
- Decrease in the total macroscopic damage versus untreated mice (observed 5 days after TNBS inoculation): 1.8 fold
- Decrease in the total macroscopic damage versus untreated mice (observed 11 days after TNBS inoculation): 1.7 fold
- Reduction in the histological score (oral treatment): 1.8 fold
- Mortality rate (oral treatment with GA, by day 8): 30%
- Inhibition of weight loss caused by TNBS colitis (orally-treated mice): modest, statistically insignificant, inhibition of weight loss
- Macroscopic scoring of colon damage: Adhesion (max 2) [1]: 0.8
- Macroscopic scoring of colon damage: Diarrhea (max 1) [1]: 0.4
- Macroscopic scoring of colon damage: Thickness (max 1) [1]: 0.1
- Macroscopic scoring of colon damage: Total Score (max 14) [1]: 2.7*
- Macroscopic scoring of colon damage: Ulceration (max 10) [1]: 1.4
- Macroscopic scoring of colon damage: Adhesion (max 2) [2]: 0.4
- Macroscopic scoring of colon damage: Diarrhea (max 1) [2]: 0.2
- Macroscopic scoring of colon damage: Thickness (max 1) [2]: 0.1
- Macroscopic scoring of colon damage: Total Score (max 14) [2]: 2.1*
- Macroscopic scoring of colon damage: Ulceration (max 10) [2]: 1.4
- Macroscopic scoring of colon damage: Adhesion (max 2) [3]: 1.4
- Macroscopic scoring of colon damage: Diarrhea (max 1) [3]: 0.3
- Macroscopic scoring of colon damage: Thickness (max 1) [3]: 0.3
- Macroscopic scoring of colon damage: Total Score (max 14) [3]: 6.4
- Macroscopic scoring of colon damage: Ulceration (max 10) [3]: 4.4
- Macroscopic scoring of colon damage: Adhesion (max 2) [4]: 1.0
- Macroscopic scoring of colon damage: Diarrhea (max 1) [4]: 0.3
- Macroscopic scoring of colon damage: Thickness (max 1) [4]: 0.3
- Macroscopic scoring of colon damage: Total Score (max 14) [4]: 5.4
- Macroscopic scoring of colon damage: Ulceration (max 10) [4]: 3.8
- Macroscopic scoring of colon damage: Adhesion (max 2) [5]: 0.0
- Macroscopic scoring of colon damage: Diarrhea (max 1) [5]: 0.0
- Macroscopic scoring of colon damage: Thickness (max 1) [5]: 0.0
- Macroscopic scoring of colon damage: Ulceration (max 10) [5]: 0.1
- Macroscopic scoring of colon damage: Adhesion (max 2) [6]: 0.0
- Macroscopic scoring of colon damage: Diarrhea (max 1) [6]: 0.0
- Macroscopic scoring of colon damage: Thickness (max 1) [6]: 0.0
- Macroscopic scoring of colon damage: Ulceration (max 10) [6]: 0.1
- Macroscopic scoring of colon damage: Adhesion (max 2) [7]: 1.0
- Macroscopic scoring of colon damage: Diarrhea (max 1) [7]: 0.2
- Macroscopic scoring of colon damage: Thickness (max 1) [7]: 0.2
- Macroscopic scoring of colon damage: Total Score (max 14) [7]: 3.7
- Macroscopic scoring of colon damage: Ulceration (max 10) [7]: 2.3
- Macroscopic scoring of colon damage: Adhesion (max 2) [8]: 0.6
- Macroscopic scoring of colon damage: Diarrhea (max 1) [8]: 0.1
- Macroscopic scoring of colon damage: Thickness (max 1) [8]: 0.2
- Macroscopic scoring of colon damage: Total Score (max 14) [8]: 3.2
- Macroscopic scoring of colon damage: Ulceration (max 10) [8]: 2.3
- Effect on macroscopic scores versus untreated controls (single injection of GA as a depot dose in ICFA): small and statistically insignificant
